According to patent US20230348369A1 (Cytokinetics, Inc., priority 2020, published 2023):
Read-outs that look alike come from different tables or passages of the source.

Molecular target: human NAMPT (Homo sapiens, UniProt P43490)
Test: Human recombinant enzyme assay (NMN fluorescence biochemical assay, activation of NAMPT)
Experimental: Compounds described herein were assayed for their ability to stimulate the synthesis of nicotinamide mononucleotide (NMN) by the enzyme NAMPT. The human recombinant enzyme assay measures the activation of the enzyme activity by compounds using recombinant enzyme and substrates in a buffered cell-free system. The assay conditions closely mimic cellular environments. Dose responses were measured using an assay to detect the formation of nicotinamide mono-nucleotide. All experiments were performed in the 384-well format. […] Enzyme reactions were initiated with the addition of 10 μL of a solution containing the substrates. The final assay conditions were as follows: 6 nM human NAMPT, 2.5 mM ATP, 20 μM PRPP and 150 μM nicotinamide in 50 mM HEPES, pH 7.2, 1 mM DTT, 1 mM CHAPS 50 mM NaCl, 100 mM MgCl2. Following an incubation of 60 min at ambient temperature, 10 μL of 20% acetophenone in DMSO was added, followed by 10 μL of 2 M KOH and 40 μL of formic acid. The plates were read for fluorescence (Excitation/Emission=355 nm/460 nm) using an EnVision plate reader after 40 mins of incubation at ambient temperature.

[1] = Table A, human recombinant NAMPT, NMN formation, 60 min
[2] = Table A, human recombinant NAMPT, NMN formation, 60 min, read-out: EC50 Human

Sequence of human NAMPT (P43490 whole entry): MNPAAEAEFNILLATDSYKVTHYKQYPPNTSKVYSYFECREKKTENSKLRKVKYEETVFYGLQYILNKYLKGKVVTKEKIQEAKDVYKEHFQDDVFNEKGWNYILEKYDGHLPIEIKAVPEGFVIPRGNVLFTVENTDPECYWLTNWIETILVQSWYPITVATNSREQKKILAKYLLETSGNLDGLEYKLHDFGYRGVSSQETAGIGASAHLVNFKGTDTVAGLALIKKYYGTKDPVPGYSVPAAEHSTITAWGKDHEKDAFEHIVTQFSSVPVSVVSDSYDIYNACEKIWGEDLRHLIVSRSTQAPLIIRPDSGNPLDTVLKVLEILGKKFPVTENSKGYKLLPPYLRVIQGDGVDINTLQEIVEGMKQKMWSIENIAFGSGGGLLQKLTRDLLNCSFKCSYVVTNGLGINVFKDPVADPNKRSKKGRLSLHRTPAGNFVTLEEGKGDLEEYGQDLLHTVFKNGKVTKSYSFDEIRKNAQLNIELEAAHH

| SMILES | AC1.4 Human [1] [µM] | EC50 [2] [µM] | EC50 [µM] |
| --- | --- | --- | --- |
| Cc1cccc(N2CC[C@]3(C2)C[C@@H](NC(=O)NCc2ccc(Cl)cc2)C3)n1 [Compound 183, 1-(4-chlorobenzyl)-3-((2r,4s)-6-(6-methylpyridin-2-yl)-6-azaspiro[3.4]octan-2-yl)urea] | 11.2 | 56 |  |
| COc1ccc(CNC(=O)NC2CC3(C2)CC(C(=O)NCc2ccccn2)C3)cc1 (centres unmarked) [Compound 56, 6-(3-(4-methoxybenzyl)ureido)-N-(pyridin-2-ylmethyl)spiro[3.3]heptane-2-carboxamide] | 9.0 | 47.7 |  |
| COC(=O)N1CCN(C(=O)C2CC3(CC(NC(=O)NCc4ccc(OC)cc4)C3)C2)CC1 (centres unmarked) [Compound 231, methyl 4-(6-(3-(4-methoxybenzyl)ureido)spiro[3.3]heptane-2-carbonyl)piperazine-1-carboxylate] | 0.5 |  | 7.8 |
| COc1ccc(CNC(=O)N[C@H]2C[C@@]3(CCN(C(=O)OC(C)(C)C)C3)C2)cc1 [Compound 82, tert-butyl (2s,4r)-2-(3-(4-methoxybenzyl)ureido)-6-azaspiro[3.4]octane-6-carboxylate] | 10.7 | 52.3 |  |
| COc1ccc(CNC(=O)NC2CC3(C2)CC(C(=O)N2CCN(C(C)C)CC2)C3)cc1 (centres unmarked) [Compound 122, 1-(6-(4-isopropylpiperazine-1-carbonyl)spiro[3.3]heptan-2-yl)-3-(4-methoxybenzyl)urea] | 5.9 | 47.6 |  |
| NC(=O)c1ccc(CNC(=O)NC2CCN(C(=O)c3ccccc3)CC2)cc1 [Compound 13, 4-((3-(1-benzoylpiperidin-4-yl)ureido)methyl)benzamide] | 17.5 |  |  |
| COc1ccc(CNC(=O)NC2CC3(C2)CC(C(=O)N[C@H](C)c2ccccc2)C3)cc1 (stereo partly drawn) [Compound 45, (R)-6-(3-(4-methoxybenzyl)ureido)-N-(1-phenylethyl)spiro[3.3]heptane-2-carboxamide] | 6.6 |  | 51.7 |
| COc1ccc(CNC(=O)NC2CC3(C2)CN(C(=O)Nc2cccc(C#N)n2)C3)cc1 [Compound 132, N-(6-cyanopyridin-2-yl)-6-(3-(4-methoxybenzyl)ureido)-2-azaspiro[3.3]heptane-2-carboxamide] | 15.0 |  | 42.8 |
| COc1ccc(CNC(=O)NC2CC3(C2)CN(C(=O)c2cccc(O)c2)C3)cc1 [Compound 177, 1-(2-(3-hydroxybenzoyl)-2-azaspiro[3.3]heptan-6-yl)-3-(4-methoxybenzyl)urea] | 2.8 |  | 11.2 |
| COc1ccc(CNC(=O)NC2CC3(C2)CC(c2nnc(-c4ccccc4)o2)C3)cc1 (centres unmarked) [Compound 325, 1-(4-Methoxybenzyl)-3-(6-(5-phenyl-1,3,4-oxadiazol-2-yl)spiro[3.3]heptan-2-yl)urea] | 2.4 | 30.6 |  |
| CC(C)(C)OC(=O)NC1CC2(CC(NC(=O)NCc3cn[nH]c3)C2)C1 (centres unmarked) [Compound 10, tert-butyl (6-(3-((1H-pyrazol-4-yl)methyl)ureido)spiro[3.3]heptan-2-yl)carbamate] | 5.8 | 50.7 |  |

Now from value to compound, other results behind:

| AC1.4 Human [1] [µM] | EC50 [2] [µM] | SMILES | EC50 [µM] |
| --- | --- | --- | --- |
| 2.0 | 33.8 | Cc1ccc(C(=O)N2CC3(CC(NC(=O)NCc4cn[nH]c4)C3)C2)cc1 [Compound 227, 1-((1H-pyrazol-4-yl)methyl)-3-(2-(4-methylbenzoyl)-2-azaspiro[3.3]heptan-6-yl)urea] |  |
| 13.6 | 42.6 | Cc1cc(C(=O)N2CC[C@]3(C2)C[C@@H](NC(=O)NCc2ccc(Cl)cc2)C3)ccn1 [Compound 160, 1-(4-chlorobenzyl)-3-((2r,4s)-6-(2-methylisonicotinoyl)-6-azaspiro[3.4]octan-2-yl)urea] |  |
| 0.1 | 2.2 | COc1ccc(CNC(=O)NC2CC3(C2)CC(C(=O)N2CCCc4c(F)cccc42)C3)cc1 (centres unmarked) [Compound 105, 1-(6-(5-fluoro-1,2,3,4-tetrahydroquinoline-1-carbonyl)spiro[3.3]heptan-2-yl)-3-(4-methoxybenzyl)urea] |  |
| 10.7 | 42.2 | COc1ccc(CNC(=O)NC2CC3(C2)CN(C(=O)Cc2ccccc2C)C3)cc1 [Compound 42, 1-(4-methoxybenzyl)-3-(2-(2-(o-tolyl)acetyl)-2-azaspiro[3.3]heptan-6-yl)urea] |  |
| 11.0 | 33.1 | O=C(NCc1ccc(Cl)cc1)NC1CC2(C1)CC(NC(=O)c1ccccc1)C2 (centres unmarked) [Compound 114, N-(6-(3-(4-chlorobenzyl)ureido)spiro[3.3]heptan-2-yl)benzamide] |  |
| 2.8 | 7.9 | O=C(NCc1ccc(Cl)cc1)NC1CC2(CC(CNC(=O)c3cn[nH]c3)C2)C1 (centres unmarked) [Compound 247, N-((6-(3-(4-chlorobenzyl)ureido)spiro[3.3]heptan-2-yl)methyl)-1H-pyrazole-4-carboxamide] |  |
| 17.3 | 24.9 | Cc1cc(N2CC[C@]3(C2)C[C@@H](NC(=O)NCc2ccc(Cl)cc2)C3)ccn1 [Compound 171, 1-(4-chlorobenzyl)-3-((2r,4s)-6-(2-methylpyridin-4-yl)-6-azaspiro[3.4]octan-2-yl)urea] |  |
| 10.0 | 23.6 | Cc1ccncc1C(=O)NC1CC2(CC(NC(=O)NCc3ccc(Cl)cc3)C2)C1 (centres unmarked) [Compound 205, N-(6-(3-(4-chlorobenzyl)ureido)spiro[3.3]heptan-2-yl)-4-methylnicotinamide] |  |
| 3.4 | 20.3 | CN1CCN(CC2CC3(C2)CC(NC(=O)NCc2ccc(Cl)cc2)C3)CC1=O (centres unmarked) [Compound 238, 1-(4-chlorobenzyl)-3-(6-((4-methyl-3-oxopiperazin-1-yl)methyl)spiro[3.3]heptan-2-yl)urea] |  |
|  | 42.5 | COc1ccc(CNC(=O)NCC2CC23CCN(C(=O)OC(C)(C)C)CC3)cc1 (centres unmarked) [Compound 28, tert-butyl 1-((3-(4-methoxybenzyl)ureido)methyl)-6-azaspiro[2.5]octane-6-carboxylate] |  |
| 1.5 | 4.2 | O=C(NCc1ccc(Cl)cc1)NC1CC2(CC(CNC(=O)C3CCS(=O)(=O)CC3)C2)C1 (centres unmarked) [Compound 243, N-((6-(3-(4-chlorobenzyl)ureido)spiro[3.3]heptan-2-yl)methyl)tetrahydro-2H-thiopyran-4-carboxamide 1,1-dioxide] |  |
| 7.8 | 37.6 | COc1ccc(CNC(=O)NC2CC3(C2)CN(C(=O)c2cccc(S(C)(=O)=O)c2)C3)cc1 [Compound 180, 1-(4-methoxybenzyl)-3-(2-(3-(methylsulfonyl)benzoyl)-2-azaspiro[3.3]heptan-6-yl)urea] |  |
| 3.6 | 14.6 | Cc1ccccc1C(=O)NC1CC2(CC(NC(=O)NCc3ccc(Cl)cc3)C2)C1 (centres unmarked) [Compound 193, N-(6-(3-(4-chlorobenzyl)ureido)spiro[3.3]heptan-2-yl)-2-methylbenzamide] |  |
| 2.2 | 5 | O=C(NCCCCC1CCN(c2ccncc2)CC1)NCc1ccc(Cl)cc1 [Compound 308, 1-(4-chlorobenzyl)-3-(4-(1-(pyridin-4-yl)piperidin-4-yl)butyl)urea] |  |
| 8.0 | 45.6 | COc1ccc(CNC(=O)NC2CC3(C2)CN(C(=O)C2(c4ccccc4)CC2)C3)cc1 [Compound 143, 1-(4-methoxybenzyl)-3-(2-(1-phenylcyclopropane-1-carbonyl)-2-azaspiro[3.3]heptan-6-yl)urea] |  |
